Experimental data published in ChEMBL document CHEMBL4428084, “Discovery and Optimization of N-(4-(3-Aminophenyl)thiazol-2-yl)acetamide as a Novel Scaffold Active against Sensitive and Resistant Cancer Cells” (J Med Chem, 2016).
pEC50: −log10 of the molar value. Calls of active or inactive are those of the source. The calls are words filed in the database; no cut-off is given here.

Columns and labels:
A-375 [1] = assay: Induction of autophagy in human A375 cells assessed as increase in LC3B-2 expression at 10 uM after 48 hrs in presence of LC3 siRNA by Western blot analysis; assay type: functional, cell-based
MIA PaCa-2 [2] = assay: Cytotoxicity against gemcitabine-resistant human MIAPaCa2 cells assessed as reduction in cell viability after 48 hrs by trypan blue exclusion assay; assay type: functional, cell-based; settings: MIA PaCa-2, 48 h
A-375 [3] = assay: Induction of autophagy in human A375 cells xenografted in immuno-deficient nude Balb/c mouse assessed as increase in LC3-2 expression in tumor at 0.7 mg/kg/day, ip measured on day 31 post treatment by Western blot analysis; assay type: functional, organism-based
[4] = Half life in mouse liver microsomes at 37 degC; assay type: ADME, Microsome
[5] = AUC (0 to 2 hrs) in mouse at 1 mg/kg, iv; assay type: ADME, organism-based; parameters: dose 1 mg/kg, time < 2 hr, route intravenous; settings: in vivo
A-375 [6] = assay: Induction of autophagy in human A375 cells assessed as increase in LC3-2 expression at 10 uM after 12 hrs by Hoechst staining based immunofluorescence method; assay type: functional, cell-based
A-375 [7] = assay: Cytotoxicity against vemurafenib-sensitive human A375 cells assessed as reduction in cell viability after 48 hrs by trypan blue exclusion assay; assay type: functional, cell-based; settings: A-375, 48 h
A-375 [8] = assay: Inhibition of colony formation in human A375 cells at 10 uM after 10 days by crystal violet staining based assay relative to control; assay type: functional; settings: A-375, 240 h
[9] = Cytotoxicity against vemurafenib-resistant human A375 R5C3 cells assessed as cell viability at 1 uM after 48 hrs by trypan blue exclusion assay relative to control; assay type: functional; settings: A-375, 48 h, read-out: Activity
[10] = Toxicity in nude Balb/c mouse xenografted with human A375 cells assessed as effect on body mass at 0.7 mg/kg/day, ip; assay type: organism-based; settings: in vivo
A-375 [11] = assay: Cytotoxicity against vemurafenib-sensitive human A375 cells assessed as cell viability at 10 uM after 48 hrs by trypan blue exclusion assay relative to control; assay type: functional; settings: A-375, 48 h, read-out: Activity
[12] = Cytotoxicity against human fibroblasts assessed as cell viability at 5 uM after 48 hrs by trypan blue exclusion assay relative to control; assay type: cell-based, Fibroblast; settings: read-out: Activity
[13] = Cytotoxicity against vemurafenib-resistant human A375 RIV cells assessed as cell viability at 1 uM after 48 hrs by trypan blue exclusion assay relative to control; assay type: functional; settings: A-375, 48 h, read-out: Activity
MIA PaCa-2 [14] = assay: Cytotoxicity against gemcitabine-resistant human MIAPaCa2 cells assessed as cell viability at 10 uM after 48 hrs by trypan blue exclusion assay relative to control; assay type: functional; settings: MIA PaCa-2, 48 h, read-out: Activity
[15] = Cytotoxicity against vemurafenib-resistant human A375 RIV cells assessed as cell viability at 10 uM after 48 hrs by trypan blue exclusion assay relative to control; assay type: functional; settings: A-375, 48 h, read-out: Activity
A-375 [16] = assay: Inhibition of colony formation in human A375 cells assessed as induction of less dense colony level at 5 and 10 uM after 10 days by crystal violet staining based assay relative to control; assay type: functional, cell-based
[17] = Cytotoxicity against vemurafenib-resistant human A375 R5C3 cells assessed as cell viability at 10 uM after 48 hrs by trypan blue exclusion assay relative to control; assay type: functional; settings: A-375, 48 h, read-out: Activity
[18] = Cytotoxicity against vemurafenib-resistant human A375 RIV cells assessed as reduction in cell viability after 48 hrs by trypan blue exclusion assay; assay type: functional, cell-based; settings: A-375, 48 h
[19] = Cytotoxicity against human keratinocytes assessed as cell viability at 10 uM after 48 hrs by trypan blue exclusion assay relative to control; assay type: cell-based, Keratinocyte; settings: read-out: Activity
K562 [20] = assay: Cytotoxicity against imatinib-resistant human K562 cells assessed as reduction in cell viability after 48 hrs by trypan blue exclusion assay; assay type: functional, cell-based; settings: K562, 48 h
[21] = Terminal half life in mouse at 1 mg/kg, iv; assay type: ADME, organism-based; settings: in vivo, read-out: beta t1/2
A-375 [22] = assay: Inhibition of colony formation in human A375 cells after 10 days by crystal violet staining based assay; assay type: functional, cell-based
A-375 [23] = assay: Cytotoxicity against vemurafenib-sensitive human A375 cells assessed as cell viability at 5 uM after 48 hrs by trypan blue exclusion assay relative to control; assay type: functional; settings: A-375, 48 h, read-out: Activity
A-375 [24] = assay: Inhibition of colony formation in human A375 cells at 5 uM after 10 days by crystal violet staining based assay relative to control; assay type: functional; settings: A-375, 240 h
A-375 [25] = assay: Cytotoxicity against human A375 cells assessed as reduction in cell viability at 10 uM after 48 hrs in presence of pan-caspase inhibitor QVD/LC3 siRNA by trypan blue exclusion assay; assay type: functional, cell-based
A-375 [26] = assay: Induction of autophagy in human A375 cells assessed as increase in LC3-1 to LC3-2 conversion at 10 uM after 24 hrs by Western blot analysis; assay type: functional, cell-based
K562 [27] = assay: Cytotoxicity against imatinib-sensitive human K562 cells assessed as reduction in cell viability after 48 hrs by trypan blue exclusion assay; assay type: functional, cell-based; settings: K562, 48 h
[28] = Toxicity in nude Balb/c mouse xenografted with human A375 cells assessed as behavioral modification at 0.7 mg/kg/day, ip; assay type: organism-based; settings: in vivo
[29] = Total clearance in mouse at 1 mg/kg, iv measured 2 hrs post dose; assay type: ADME, organism-based; settings: in vivo
[30] = Cytotoxicity against vemurafenib-resistant human A375 RIV cells assessed as cell viability at 5 uM after 48 hrs by trypan blue exclusion assay relative to control; assay type: functional; settings: A-375, 48 h, read-out: Activity
[31] = Cytotoxicity against human fibroblasts assessed as cell viability at 10 uM after 48 hrs by trypan blue exclusion assay relative to control; assay type: cell-based, Fibroblast; settings: read-out: Activity
[32] = Volume of distribution in mouse at 1 mg/kg, iv measured 2 hrs post dose; assay type: ADME, organism-based; settings: in vivo
[33] = Toxicity in mouse assessed as behavioral modification at 1 mg/kg, iv; assay type: organism-based; settings: in vivo
[34] = Toxicity in nude Balb/c mouse xenografted with human A375 cells assessed as diet disturbance at 0.7 mg/kg/day, ip; assay type: organism-based; settings: in vivo
K562 [35] = assay: Cytotoxicity against imatinib-sensitive human K562 cells assessed as cell viability at 10 uM after 48 hrs by trypan blue exclusion assay relative to control; assay type: functional; settings: K562, 48 h, read-out: Activity
BXPC-3 [36] = assay: Cytotoxicity against gemcitabine-sensitive human BxPC3 cells assessed as cell viability at 10 uM after 48 hrs by trypan blue exclusion assay relative to control; assay type: functional; settings: BXPC-3, 48 h, read-out: Activity
A-375 [37] = assay: Induction of apoptosis in human A375 cells assessed as increase in cleaved PARP expression at 10 uM after 48 hrs in presence of pan-caspase inhibitor QVD by Western blot analysis; assay type: functional, cell-based
[38] = Cytotoxicity against vemurafenib-resistant human A375 R5C3 cells assessed as reduction in cell viability after 48 hrs by trypan blue exclusion assay; assay type: functional, cell-based; settings: A-375, 48 h
[39] = Cytotoxicity against human keratinocytes assessed as cell viability at 5 uM after 48 hrs by trypan blue exclusion assay relative to control; assay type: cell-based, Keratinocyte; settings: read-out: Activity
A-375 [40] = assay: Induction of apoptosis in human A375 cells xenografted in immuno-deficient nude Balb/c mouse assessed as increase in cleaved PARP expression in tumor at 0.7 mg/kg/day, ip measured on day 31 post treatment by Western blot analysis; assay type: functional, organism-based
A-375 [41] = assay: Antitumor activity against human A375 cells xenografted in immuno-deficient nude Balb/c mouse assessed as tumor growth inhibition at 0.7 mg/kg/day, ip measured on day 31 post treatment; assay type: functional, organism-based
A-375 [42] = assay: Induction of apoptosis in human A375 cells assessed as increase in cleaved PARP expression at 10 uM after 24 hrs by Western blot analysis; assay type: functional, cell-based
BXPC-3 [43] = assay: Cytotoxicity against gemcitabine-sensitive human BxPC3 cells assessed as reduction in cell viability after 48 hrs by trypan blue exclusion assay; assay type: functional, cell-based; settings: BXPC-3, 48 h
A-375 [44] = assay: Induction of apoptosis in human A375 cells assessed as cells with active caspase-3 at 10 uM after 48 hrs by flow cytometry (reference value: 4.16%); assay type: functional
K562 [45] = assay: Cytotoxicity against imatinib-resistant human K562 cells assessed as cell viability at 10 uM after 48 hrs by trypan blue exclusion assay relative to control; assay type: functional; settings: K562, 48 h, read-out: Activity

For `CCCCCCC#Cc1ccc(S(=O)(=O)Nc2cccc(-c3csc(NC(C)=O)n3)c2)cc1`, the Activity (A-375 [1]) was “inactive”, the pEC50 (MIA PaCa-2 [2]) was 6.19 and the Activity (A-375 [3]) was “Active”. The half-life [4] was over 45 min, the AUC(0-t) at 2 h [5] was 389 ng·h/mL and the Activity (A-375 [6]) was “Active”. The pEC50 (A-375 [7]) was 6.25, the inhibition at 10 µM (A-375 [8]) was 94% and the viability at 1 µM [9] was 83%. For the same molecule, the Activity [10] was “Non-Toxic”, the viability at 10 µM (A-375 [11]) was under 1% and the viability at 48 h, 5 µM [12] was 91.5%. For the same molecule, the viability at 1 µM [13] was 12%, the viability at 10 µM (MIA PaCa-2 [14]) was under 1% and the viability at 10 µM [15] was under 1%. The inhibition (A-375 [16]) was “Active”, the viability at 10 µM [17] was under 1% and the pEC50 [18] was 6.32. It also gave a viability at 48 h, 10 µM [19] of 93.4%, a pEC50 (K562 [20]) of 5.79 and a half-life [21] of 47 min. For the same molecule, the inhibition (A-375 [22]) was “Dose-dependent effect”, the viability at 5 µM (A-375 [23]) was under 1% and the inhibition at 5 µM (A-375 [24]) was 77%. The Activity (A-375 [25]) was “inactive”, the Activity (A-375 [26]) was “Active” and the pEC50 (K562 [27]) was 5.85. The Activity [28] was “Non-Toxic”, the clearance [29] was 43 mL/min/kg and the viability at 5 µM [30] was 0.3%. For the same molecule, the viability at 48 h, 10 µM [31] was 85.1%, the Vd [32] was 2.91 L/kg and the Activity [33] was “Non-Toxic”. For the same molecule, the Activity [34] was “Non-Toxic”, the viability at 10 µM (K562 [35]) was 0.6% and the viability at 10 µM (BXPC-3 [36]) was under 1%. The Activity (A-375 [37]) was “inactive”, the pEC50 [38] was 5.88 and the viability at 48 h, 5 µM [39] was 91.2%. The Activity (A-375 [40]) was “Active”, the TGI (A-375 [41]) was “Active” and the Activity (A-375 [42]) was “Active”. For the same molecule, the pEC50 (BXPC-3 [43]) was 6.42, the Activity (A-375 [44]) was 48 - 48.4% and the viability at 10 µM (K562 [45]) was 3.4%.
